According to patent US20240285626A1, “INFIGRATINIB FOR TREATMENT OF FGFR3-RELATED SKELETAL DISEASES DURING PREGNANCY” (INSERM (INSTITUT NATIONAL DE LA SANTÉ ET DE LA RECHERCHE …, priority 2018, published 2024):

Assays:
[1] = test system: Fgfr3Y367C/+ pups exhibiting dwarfism; conditions: Komla-Ebri et al 2016; Biosse Duplan et al 2016; cited from earlier work
Fgfr3Y367C/+ pups = type: in vivo, mice
Experimental: We treated pregnant female Fgfr3^Neo/Y367C mice that were mated with Cre^CMV/+ male mice (Pannier, S., Couloigner, V., Messaddeq, N., Elmaleh-Bergès, M., Munnich, A., Romand, R., & Legeai-Mallet, L. (2009). Activating Fgfr3 Y367C. mutation causes hearing loss and inner ear defect in a mouse model of chondrodysplasia. Biochimica et Biophysica Acta (BBA)-Molecular Basis of Disease, 1792(2), 140-147.). We injected BGJ398 (4 mg/kg) subcutaneously in 5 pregnant mice at day E14.5 continuing daily through day 1 (after birth). The pregnant mice received 5 injections of BGJ398 before delivery. We applied isofluorane inhalation to the pregnant mice during 20 seconds before the subcutaneous injections. All the pups were analyzed at day 1 after birth. At necropsy, all the long bones were measured and embedded in paraffin and were submitted to histology and immunology.

[2] = Fgfr3Y367C/+ pups, day 1 after birth, mothers 4 mg/kg s.c. daily from E14.5, vs vehicle
[3] = femur histology, H&E staining, vs vehicle, data not shown

placental transfer (Fgfr3Y367C/+ pups; mouse, in vivo): cross the placenta at therapeutic level
SMILES: CCN1CCN(c2ccc(Nc3cc(N(C)C(=O)Nc4c(Cl)c(OC)cc(OC)c4Cl)ncn3)cc2)CC1 [BGJ398, 3-(2,6-dichloro-3,5-dimethoxyphenyl)-1-[6-[4-(4-ethylpiperazin-1-yl)anilino]pyrimidin-4-yl]-1-methylurea]
pathological hallmarks of ACH [1]: corrects pathological hallmarks of ACH | skeletal phenotype at birth (Fgfr3Y367C/+ pups; 4 Fgfr3Y367C/+ pups that received BGJ398 vs 5 that received vehicle): improvement of the skeletal phenotype | length of the upper limbs (humerus, ulna, radius), in words (Fgfr3Y367C/+ pups; FIG. 1A-C, pups at day 1, mothers 4 mg/kg s.c.): significant improvement of the length | length of the lower limbs (femur, tibia), in words (Fgfr3Y367C/+ pups; FIG. 2A-B, pups at day 1, mothers 4 mg/kg s.c.): improvement of the length | improvement of the size of tibia (Fgfr3Y367C/+ pups; [2]): +4.32% | increase of the length of humerus (Fgfr3Y367C/+ pups; [2]): +4.35% | increase of the length of ulna (Fgfr3Y367C/+ pups; [2]): +6.12% | organization of chondrocytes in the proliferative zone of the growth plate cartilage (Fgfr3Y367C/+ pups; [3]): well organized | size of the hypertrophic chondrocytes in the hypertrophic zone (Fgfr3Y367C/+ pups; [3]): increased | skeletal anomalies that occurred during embryonic stages (Fgfr3Y367C/+ pups; treatment during 5 days in pregnant mice): successfully repressed skeletal anomalies
